Laboratory results reported in patent US4305944A, “N-[(4-[3-cyano substituted pyridyl]piperazino)alkyl]-azaspirodecanediones” (priority 1980, dated 1981).
pIC50: −log10 of the molar value. Read-outs that look alike come from different tables or passages of the source.

Key:
[1] = molecular target: alpha-adrenergic receptors in the cerebral cortex; assay: Test VI: receptor binding assay, tritiated WB-4101 as ligand (alpha-adrenergic blockade); design: species or system rat; settings: for pIC50: Test VI, tritiated WB-4101 as ligand, rat cerebral cortex, in excess of 100 nM is considered inactive
Excerpt: (§1) Tests V and VI are receptor binding assays which measure the ability of a compound to prevent the binding of a radiolabeled ligand to specific high affinity sites in brain tissue. According to the state of the art, various ligands have been identified with aspects of CNS function or potential for side effects. The ability of a compound to inhibit labeled ligand binding in vitro is considered to be a reflection of the compound's ability to effect the corresponding CNS function or side effect in vivo.

[2] = test system: mouse; assay: Test III: spontaneous motor activity, activity cage mouse treated orally (CNS depression); settings: in words; for sedative action (Tests III and IV): oral and intraperitoneal
Excerpt: (§3) AED-0.3 (mg/kg. of body weight) activity cage
mouse treated orally (CNS depression).
(§4) Test IV involves measurement of spontaneous motor activity of mice as a reflection of the CNS depressant or sedative side effects of the test compound. […] The AED-0.3 reflects approximately 50% reduction in spontaneous motor activity.

[3] = as above; settings: in vivo, po
Excerpt: as §3
mouse treated orally (CNS depression).
as §4

[4] = test system: rat; assay: rat catalepsy test; format: in vivo; settings: for rat catalepsy test result: oral doses of 200 mg/kg.
Method: (§2) That dose of Compound No. 7, however, constituted the ALD50 dose for rats. In mice the ALD50 of Compound No. 7 was determined to be 500 mg/kg. of body weight.

[5] = test system: fasted rat; assay: Test I: conditioned avoidance response (CAR), fasted rat treated orally (psychotropic); format: in vivo; settings: for ED50: read-out: CAR-ED50
Method: I. CAR-ED50 (mg/kg. of body weight) fasted rat
treated orally (psychotropic).
Tests I and II refer to the conditioned avoidance response. […] Test I is a modification of the same conditioned avoidance response test except that fasted rats were employed and the animals were treated orally.

[6] = molecular target: T1, alpha-adrenergic receptor (Rattus norvegicus, UniProt P43140); assay: Test VII: alpha-adrenergic receptor blocking action in vitro, isolated rat seminal vesicle, 1-norepinephrine as spasmogen
T1 sequence (P43140 1-466): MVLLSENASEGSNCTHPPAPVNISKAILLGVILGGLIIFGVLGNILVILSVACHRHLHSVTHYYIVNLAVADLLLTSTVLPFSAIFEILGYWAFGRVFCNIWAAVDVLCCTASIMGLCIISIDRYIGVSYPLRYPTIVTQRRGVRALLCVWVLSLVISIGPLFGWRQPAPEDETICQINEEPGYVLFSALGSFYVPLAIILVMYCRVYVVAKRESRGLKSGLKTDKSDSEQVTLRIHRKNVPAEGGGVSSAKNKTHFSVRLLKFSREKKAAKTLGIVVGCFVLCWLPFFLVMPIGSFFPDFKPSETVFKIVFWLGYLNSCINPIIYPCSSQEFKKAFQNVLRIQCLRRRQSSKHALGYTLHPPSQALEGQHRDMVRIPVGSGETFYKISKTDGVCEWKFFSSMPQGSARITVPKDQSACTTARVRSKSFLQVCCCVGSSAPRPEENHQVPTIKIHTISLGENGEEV
Excerpt: (§5) IC50 (mcg/ml) alpha-adrenergic receptor blocking action
(§6) in vitro - rat seminal vesicle - 1-norepinephrine
(§7) Test VII is an in vitro measurement of alpha-adrenergic receptor blocking action employing the isolated seminal vesicle of the rat. […] A low value represents high activity.

[7] = Test IV: spontaneous motor activity, activity cage mouse treated intraperitoneally (CNS depression); format: in vivo; settings: in vivo, ip
Excerpt: (§8) AED-0.3 (mg/kg. of body weight) activity cage,
as §4

[8] = test system: fed rat; assay: Test II: conditioned avoidance response (CAR), fed rat treated intraperitoneally (psychotropic); format: in vivo; settings: for ED50: ip, read-out: CAR-ED50; for activity in the conditioned avoidance response test (Test II): in words
Method: Tests I and II refer to the conditioned avoidance response. Data with respect to Test II were obtained by the method described in the above Wu, et al. patents and publications in which trained rats were maintained on a standard laboratory diet and were treated intraperitoneally with the test drug. Test I is a modification of the same conditioned avoidance response test except that fasted rats were employed and the animals were treated orally.

[9] = molecular target: T2, dopamine binding, corpus striatum (Rattus norvegicus, UniProt P61169); assay: Test V: receptor binding assay, tritiated spiperone as ligand, dopamine binding assay (psychotropic); settings: tritiated siperone as ligand, Compound 7: average of two determinations
T2 construct: The corpus striatum of male Sprague-Dawley rats (Charles River Laboratories) is employed as the test tissue; tissue Charles River Laboratories; host or cells: corpus striatum of male Sprague-Dawley rats
Excerpt: V. Receptor binding assay, IC50 in nM, tritiated siperone as
as §1
Test V is a dopamine binding assay which reflects neuroleptic activity (Burt, Creese, and Snyder, Molec. Pharmacol. 12:800 (1976); Burt, Creese, and Snyder, Science 196: 326 (1977); Creese, Burt, and Snyder, Science 192: 481 (1976)). The corpus striatum of male Sprague-Dawley rats (Charles River Laboratories) is employed as the test tissue. The radiolabeled ligand is tritiated spiperone. […] Thus, any value less than 1000 nM in Test V represents potential neuroleptic utility.

[10] = test system: mouse; assay: Test IV: spontaneous motor activity, activity cage mouse treated intraperitoneally (CNS depression); format: in vivo; settings: in words; mouse
Excerpt: as §8, §4

[11] = molecular target: T1, alpha-adrenergic receptor
Excerpt: as §5, §6, §7

[12] = ALD50 for rats; settings: rat, in vivo, oral dose of the catalepsy test
Method: as §2

[13] = ALD50 in mice; settings: mouse, in vivo
Method: as §2

[14] = in vivo; settings: mouse, po
Excerpt: as §3
mouse treated orally (CNS depression).
as §4

[15] = Test IV, activity cage mouse, intraperitoneal, reflects approximately 50% reduction in spontaneous motor activity, read-out: AED-0.3
[16] = Test II, fed rat, intraperitoneal

T2 sequence (P61169 whole entry): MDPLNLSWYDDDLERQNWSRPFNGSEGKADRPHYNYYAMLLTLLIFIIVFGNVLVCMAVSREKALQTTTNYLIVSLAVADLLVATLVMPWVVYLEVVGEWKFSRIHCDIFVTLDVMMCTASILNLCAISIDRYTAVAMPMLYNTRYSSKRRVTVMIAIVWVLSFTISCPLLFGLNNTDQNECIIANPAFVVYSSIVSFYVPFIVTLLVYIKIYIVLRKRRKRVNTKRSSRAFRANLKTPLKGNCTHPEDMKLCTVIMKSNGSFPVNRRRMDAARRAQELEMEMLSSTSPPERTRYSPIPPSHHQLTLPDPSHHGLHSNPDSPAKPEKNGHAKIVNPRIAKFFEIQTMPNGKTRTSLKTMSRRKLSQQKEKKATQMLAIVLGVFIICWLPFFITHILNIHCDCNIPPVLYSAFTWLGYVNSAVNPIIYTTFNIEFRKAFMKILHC

ED50 [3] [mg/kg] | ED50 [7, 15] [mg/kg] | pIC50 [6] | Compound | pIC50 [1] | rat catalepsy test result [4] | ED50 ([5]; Test I, fasted rat, oral) [mg/kg] | ED50 [8, 16] [mg/kg] | other results
82 | 7.4 | 6.74 | COc1cccc(N2CCN(CCCN3C(=O)CC4(CCCC4)CC3=O)CC2)n1 [Compound No. 2] | 7.32 |  |  | > 50 | activity by intraperitoneal route (Test IV) relative to oral route (Test III) [10]: several-fold stronger activity; activity in the conditioned avoidance response test (Test II) ([8]; fed rat, intraperitoneal): very substantially less active; alpha-adrenergic blocking agent (Tests VI and VII) [11]: relatively strong
 | 41 | 5.23 | O=C1CC2(CCCC2)CC(=O)N1CCN1CCN(c2ccccn2)CC1 [compound 1] |  |  |  | 22.6 | activity in the conditioned avoidance response test (Test II) ([8]; fed rat, intraperitoneal): very substantially less active
10 | 2.6 | 6.06 | O=C1CC2(CCCC2)CC(=O)N1CCCCN1CCN(c2ccccn2)CC1 [Compound No. 3] | 6.55 |  | 34 | 2.8 | activity by intraperitoneal route (Test IV) relative to oral route (Test III) [10]: several-fold stronger activity; sedative action (Tests III and IV) [2]: high

The remaining lines, values behind:

Compound | ED50 [3] [mg/kg] | ED50 [7, 15] [mg/kg] | pIC50 [6] | pIC50 [1] | rat catalepsy test result [4] | ED50 ([5]; Test I, fasted rat, oral) [mg/kg] | ED50 [8, 16] [mg/kg] | other results
N#Cc1cccnc1N1CCN(CCCCN2C(=O)CC3(CCCC3)CC2=O)CC1 [Compound No. 4, 2-[4-[4-(7,9-Dioxo-8-azaspiro[4.5]decan-8-yl)butyl]-1-piperazinyl]pyridine-3-carbonitrile] | 97 |  |  | 6.44 | inactive | 24 |  | potency in Test VI (alpha-adrenergic blocking action) ([1]; in words): low potency; potency in Test III (sedative action) ([2]; oral): low potency; sedative action (Tests III and IV) [2]: lack of sedative action; potency in Test I (neuroleptic action) ([5]; in words, fasted rat, oral): good potency
CN(C)CCCN1c2ccccc2Sc2ccc(Cl)cc21 [Chlorpromazine, chlorpromazine] |  | 3.6 |  | 7.51 |  |  |  | alpha-adrenergic blocking activity ([6]; in words, rat seminal vesicle): strong; ED50 ([8]; Rattus norvegicus): 4.8 mg/kg; ED5 in the rat catalepsy test [4]: 4.1 mg/kg; ED50 ([5]; Rattus norvegicus, po): 39 mg/kg
CC1CN(c2ncccc2C#N)CCN1CCCCN1C(=O)CC2(CCCC2)CC1=O (centres unmarked) [compound 5, 2-[4-[4-(7,9-Dioxo-8-azaspiro[4.5]decan-8-yl)butyl]-3-methyl-1-piperazinyl]pyridine-3-carbonitrile] |  |  |  |  |  | 85 |  | pIC50 [9]: 6.40
COc1cccnc1N1CCN(CCCCN2C(=O)CC3(CCCC3)CC2=O)CC1 [Compound No. 7] |  |  |  | 7.19 | inactive | 55 |  | LD50 [12]: 200 mg/kg; pIC50 [9]: 7.00; LD50 [13]: 500 mg/kg
O=C1CC2(CCCC2)CC(=O)N1CCCCN1CCN(c2ncccn2)CC1 [Compound No. 6, buspirone] |  |  |  |  | inactive | 48 | 4.3 | ED50 [14]: 92 mg/kg; ED50 ([7]; mouse): 33 mg/kg
